Key:
Test in all cases: FLIPR calcium assay, cells with promiscuous G protein transfected with bitter receptor cDNA
Assay type in all cases: cell-based
Details in all cases: responsive if cellular response of >10% over baseline, Fluo4-AM
[1] = target: T1, T2R receptor SEQ ID NO: 4 (S4) (Homo sapiens, UniProt Q9NYV8)
T1 construct: expressed in transfected cells; host or cells: cells expressing a promiscuous G protein (e.g., G16g44)
T1 sequence (Q9NYV8 1-317): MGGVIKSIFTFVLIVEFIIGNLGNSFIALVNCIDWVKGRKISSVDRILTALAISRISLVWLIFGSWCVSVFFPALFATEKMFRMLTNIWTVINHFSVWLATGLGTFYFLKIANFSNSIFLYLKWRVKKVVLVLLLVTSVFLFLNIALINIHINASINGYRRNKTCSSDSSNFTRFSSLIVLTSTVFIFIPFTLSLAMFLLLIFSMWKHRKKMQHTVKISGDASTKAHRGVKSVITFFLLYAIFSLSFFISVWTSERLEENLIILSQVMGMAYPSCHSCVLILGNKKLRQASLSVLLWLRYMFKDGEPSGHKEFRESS
Description: (§1) Cells expressing a promiscuous G protein (e.g., G16g44) were transfected with vectors encoding 22 functional bitter receptor cDNAs, with one receptor per transfection. The cells were transfected directly in 384-well format high-density plates and incubated for 28 hours. Later, cells were loaded with the Ca-specific dye Fluo4-AM. After an incubation of 60 minutes, excess dye is washed off, and cells are stimulated with respective bitter agonists while simultaneously recording changes in intracellular fluorescence using a FLIPR instrument.
(§2) The above protocol was carried out using 94 different active pharmaceutical ingredients (APIs) that span a wide range of different APIs having a diversity of chemical structures. A particular T2R receptor was identified as being responsive to a particular API if it triggered a cellular response of >10% over baseline.

[2] = target: T2, T2R receptor SEQ ID NO: 6 (S6) (Homo sapiens, UniProt P59540)
T2 construct: expressed in transfected cells; host or cells: cells expressing a promiscuous G protein (e.g., G16g44)
T2 sequence (P59540 1-309): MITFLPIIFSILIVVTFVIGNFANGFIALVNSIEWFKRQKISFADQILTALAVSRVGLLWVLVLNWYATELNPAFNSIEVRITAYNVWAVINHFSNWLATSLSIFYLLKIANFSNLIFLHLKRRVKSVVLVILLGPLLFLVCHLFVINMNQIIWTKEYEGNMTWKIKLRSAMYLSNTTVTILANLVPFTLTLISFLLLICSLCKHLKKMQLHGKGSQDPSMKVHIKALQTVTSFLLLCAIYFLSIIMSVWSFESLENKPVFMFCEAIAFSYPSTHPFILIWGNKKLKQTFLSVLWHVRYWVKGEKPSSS
Description: as §1, §2

[3] = target: T3, T2R receptor SEQ ID NO: 5 (S5) (Homo sapiens, UniProt P59534)
T3 construct: expressed in transfected cells; host or cells: cells expressing a promiscuous G protein (e.g., G16g44)
T3 sequence (P59534 18-338): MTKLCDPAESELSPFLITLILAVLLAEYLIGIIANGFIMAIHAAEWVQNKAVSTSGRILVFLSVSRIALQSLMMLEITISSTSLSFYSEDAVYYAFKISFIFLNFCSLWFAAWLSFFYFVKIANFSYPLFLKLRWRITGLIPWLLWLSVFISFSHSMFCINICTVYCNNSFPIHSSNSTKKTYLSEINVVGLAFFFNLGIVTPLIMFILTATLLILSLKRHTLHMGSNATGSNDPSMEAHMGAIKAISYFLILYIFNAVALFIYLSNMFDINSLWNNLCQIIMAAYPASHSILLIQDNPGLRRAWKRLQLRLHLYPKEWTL
Description: as §1, §2

[4] = target: T4, T2R receptor SEQ ID NO: 3 (S3) (Homo sapiens, UniProt Q9NYW0, T156M)
T4 construct: expressed in transfected cells; host or cells: cells expressing a promiscuous G protein (e.g., G16g44)
T4 sequence (Q9NYW0 1-307 T156M): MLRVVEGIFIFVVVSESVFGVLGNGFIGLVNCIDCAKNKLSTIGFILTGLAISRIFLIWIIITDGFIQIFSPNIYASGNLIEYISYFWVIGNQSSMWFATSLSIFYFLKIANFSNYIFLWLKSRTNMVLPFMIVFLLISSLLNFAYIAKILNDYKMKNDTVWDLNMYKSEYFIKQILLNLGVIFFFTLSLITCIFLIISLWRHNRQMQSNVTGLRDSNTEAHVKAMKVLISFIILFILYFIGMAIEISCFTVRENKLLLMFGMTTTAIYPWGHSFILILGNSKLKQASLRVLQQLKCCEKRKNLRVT
Description: as §1, §2

[5] = target: T5, T2R receptor SEQ ID NO: 1 (S1) (Homo sapiens, UniProt Q9NYW7)
T5 construct: expressed in transfected cells; host or cells: cells expressing a promiscuous G protein (e.g., G16g44)
T5 sequence (Q9NYW7 1-299): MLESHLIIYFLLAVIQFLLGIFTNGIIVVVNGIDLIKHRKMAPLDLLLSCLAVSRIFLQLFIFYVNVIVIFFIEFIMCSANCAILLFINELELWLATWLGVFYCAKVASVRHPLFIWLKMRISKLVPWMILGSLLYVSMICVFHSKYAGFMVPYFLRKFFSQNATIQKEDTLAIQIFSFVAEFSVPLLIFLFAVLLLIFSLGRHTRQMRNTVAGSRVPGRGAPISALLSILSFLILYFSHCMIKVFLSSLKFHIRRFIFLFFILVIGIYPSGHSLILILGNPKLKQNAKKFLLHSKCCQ
Description: as §1, §2

| Structure (SMILES) | S4 positive response of T2R receptor to API [1] | S6 positive response of T2R receptor to API [2] | S5 positive response of T2R receptor to API [3] | S3 positive response of T2R receptor to API [4] | S1 positive response of T2R receptor to API [5] |
| --- | --- | --- | --- | --- | --- |
| OC(CCCN1CCCCC1)(c1ccccc1)c1ccccc1 [Diphenidol] | + (a “+” to indicate whether a particular T2R receptor showed a positive response to a particular API) | + (a “+” to indicate whether a particular T2R receptor showed a positive response to a particular API) | + (a “+” to indicate whether a particular T2R receptor showed a positive response to a particular API) | + (a “+” to indicate whether a particular T2R receptor showed a positive response to a particular API) | + (a “+” to indicate whether a particular T2R receptor showed a positive response to a particular API) |
| CC(=O)CC(c1ccccc1)c1c(O)c2ccccc2oc1=O (stereo not shown) [Warfarin] | + (a “+” to indicate whether a particular T2R receptor showed a positive response to a particular API) |  | + (a “+” to indicate whether a particular T2R receptor showed a positive response to a particular API) |  | + (a “+” to indicate whether a particular T2R receptor showed a positive response to a particular API) |
| CC(C)(C)NC[C@H](O)COc1nsnc1N1CCOCC1 [Timolol] |  | + (a “+” to indicate whether a particular T2R receptor showed a positive response to a particular API) | + (a “+” to indicate whether a particular T2R receptor showed a positive response to a particular API) | + (a “+” to indicate whether a particular T2R receptor showed a positive response to a particular API) | + (a “+” to indicate whether a particular T2R receptor showed a positive response to a particular API) |
| N=C(NCCCCCCNC(=N)NC(=N)Nc1ccc(Cl)cc1)NC(=N)Nc1ccc(Cl)cc1.O=C(O)[C@H](O)[C@@H](O)[C@H](O)[C@H](O)CO.O=C(O)[C@H](O)[C@@H](O)[C@H](O)[C@H](O)CO [Chlorhexidine Digluconate] | + (a “+” to indicate whether a particular T2R receptor showed a positive response to a particular API) | + (a “+” to indicate whether a particular T2R receptor showed a positive response to a particular API) | + (a “+” to indicate whether a particular T2R receptor showed a positive response to a particular API) |  | + (a “+” to indicate whether a particular T2R receptor showed a positive response to a particular API) |
| CC(C)(C(=O)O)c1ccc(C(O)CCCN2CCC(C(O)(c3ccccc3)c3ccccc3)CC2)cc1 (stereo not shown) [Fexofenadine] |  | + (a “+” to indicate whether a particular T2R receptor showed a positive response to a particular API) | + (a “+” to indicate whether a particular T2R receptor showed a positive response to a particular API) |  | + (a “+” to indicate whether a particular T2R receptor showed a positive response to a particular API) |
| CC[C@H]1OC(=O)[C@H](C)[C@@H](O[C@H]2C[C@@](C)(OC)[C@@H](O)[C@H](C)O2)[C@H](C)[C@@H](O[C@@H]2O[C@H](C)C[C@H](N(C)C)[C@H]2O)[C@](C)(OC)C[C@@H](C)C(=O)[C@H](C)[C@@H](O)[C@]1(C)O [Clarithromycin] |  |  | + (a “+” to indicate whether a particular T2R receptor showed a positive response to a particular API) | + (a “+” to indicate whether a particular T2R receptor showed a positive response to a particular API) | + (a “+” to indicate whether a particular T2R receptor showed a positive response to a particular API) |
